Measurements as given in a melting point compilation (Tetko et al.).

| Structure (SMILES) | melting point [°C] |
| --- | --- |
| O=Cc1ccc(-c2ccccc2[N+](=O)[O-])o1 | 96 to 98 |
| COc1ccccc1-c1nnc2n1NC(c1ccc(Cl)cc1)S2 (centres undefined) | 203 |
| Oc1ccc(C(F)(F)F)cn1 | 145 to 148 |
| O=[N+]([O-])c1ccc(Cl)cc1[N+](=O)[O-] | 40 to 41 |
| O=c1on(-c2ccccc2)c(Br)c1-c1ccccc1 | 165 to 166 |
| Brc1ccc2nccn2c1 | 76 to 78 |
| Oc1ccc(Cl)nc1 | 155 |
| CSc1nc(Cl)c(-c2ccccc2)c(Cl)n1 | 114 |
| Cc1cnc(Cl)nc1Cl | 26 |
| O=C(Cl)c1ccccc1COc1ccccc1 | 49 to 51 |
| Nc1cccc(Cn2ccnc2)c1 | 72 to 74 |
| N#C/C(=C/c1cccnc1)c1nc(-c2ccccc2)cs1 | 164 |
| Fc1ccc(CBr)c(Cl)c1 | 37 |
| Cc1oc(-c2ccccc2)cc1-c1ccccc1 | 44 |
| O=C1Nc2ccccc2/C1=C/c1ccccc1[N+](=O)[O-] | 82 |
| C=CCC1(c2ccccc2)C(=O)NC(=O)NC1=O | 156 |
| NCCC(c1ccccc1)c1ccccc1 | 29 to 31 |
| COc1cc(N)ccc1[N+](=O)[O-] | 127 |
| CC(CN1CCOCC1)C(C(=O)N1CCCC1)(c1ccccc1)c1ccccc1 (centres undefined) | 180 |
| Cc1cc(N=Nc2ccccc2)ccc1N=Nc1ccccc1 | 109 |
| COc1ccc(Br)c2c1C(=O)C2 | 74 |
| O=S1(=O)OCC2C(CO1)C1(Cl)C(Cl)=C(Cl)C2(Cl)C1(Cl)Cl (centres undefined) | 182 |

| Structure (SMILES) | melting point [°C] |
| --- | --- |
| O=C1C(Br)C2c3ccccc3C(C1Br)C(Br)C(=O)C2Br (centres undefined) | 80 |
| N#Cc1ccc(N)c(F)c1 | 89 |
| CN1C(=O)Cc2cc(N)ccc21 | 109 to 112 |
| O=[N+]([O-])c1ccc(-c2ccc(NNc3ccccc3)cc2)cc1 | 165 |
| Cc1cc(C(=O)O)c(C)n1C1CC1 | 178 to 185 |
| CC1(C)C(C(=O)OC(C#N)c2cccc(Oc3ccccc3)c2)C1(C)C (centres undefined) | 47.5 |
| Cc1cc(Br)cc(C)c1N=C=O | 61 |
| C=CCn1c(SC)nc2ccccc2c1=O | 75 to 77 |
| CC(/C=C(\C)c1ccc(-c2ccccc2)cc1)=NNS(=O)(=O)c1ccc([N+](=O)[O-])c([N+](=O)[O-])c1 | 200 to 201 |
| O=C1C=CC(=O)N1c1cccnc1Cl | 115 to 117 |
| Cc1ncc(C#N)c(N)n1 | 249 to 252 |
| O=c1[nH]nc([N+](=O)[O-])c(Cl)c1Cl | 184 to 186 |
| O=CC(C=O)c1cnc2ccccc2n1 | 197 to 199 |
| CCCCCS(=O)CCCCC | 58 |
| Cc1cc(=O)n2nc(C(F)(F)F)nc2[nH]1 | 214 |
| Clc1ccc2c(c1)Oc1c(Cl)c(Cl)c(Cl)c(Cl)c1O2 | 195 |
| C=CC(=O)Oc1c(Br)cc(Cl)c2cccnc12 | 100 |
| Cc1ccc(Br)c(C)c1 | -17 |
| O=C1c2ccccc2C(=O)C1C(=O)C(c1ccccc1)c1ccc(Cl)cc1 (centres undefined) | 140 |
| O=C(Cl)c1ccc(-c2nccs2)cc1 | 122 to 123 |
| Nc1ccccc1CCCCc1ccccc1N | 74 |
| Cc1noc(-c2ccccc2)c1I | 66 to 68 |

| Structure (SMILES) | melting point [°C] |
| --- | --- |
| c1cnc2c(ccc3nccnc32)n1 | 249 to 252 |
| COc1cc(CC#N)ccc1O | 56.5 |
| CC12CCC3c4ccc(OC(=O)N(CCCl)CCCl)cc4CCC3C1CCC2O (centres undefined) | 104 |
| O=Cc1ccc(CN2C(=O)c3ccccc3C2=O)o1 | 125 to 126 |
| C=C(C)c1ccc(C(C)C)cc1 | -30.6 |
| O=[N+]([O-])c1cccc(NN=Cc2ccccc2)c1 | 196 |
| CCCCCCCCCCCCOc1ccccc1OCCCCCCCCCCCC | 45 to 48 |
| C#Cc1ccc(Cl)cc1 | 45 |
| O=S(=O)(Cl)c1cccc2cccnc12 | 129 |
| Cc1ccnc2c1ccc1c(C)ccnc12 | 194 |
| c1ccc2c(c1)-c1ccc3ccc4cccc5cc-2c1c3c45 | 164 |
| Cc1cc(N)ccc1I | 50 to 55 |
| CN1C(=O)CN=C(c2ccccc2F)c2cc(Cl)ccc21 | 296 |
| c1ccc(P(C2CCCCC2)C2CCCCC2)cc1 | 59.5 |
| O=C(CC(c1ccccc1)c1ccccc1)c1ccccc1 | 96 |
| Cc1ccc2c(C)c(C)ccc2c1 | 14 |
| Fc1c(Cl)c(F)c(Br)c(F)c1Cl | 58 to 59.5 |
| COc1ccc(C(=S)Nc2ccccc2)cc1 | 157 |
| c1ccc2nncnc2c1 | 75.8 |
| Clc1ccc(Oc2ccccc2)cc1 | -8 |
| Clc1nccc2ccc(Br)cc12 | 124 |
| Nc1cccc(COc2ccccc2)c1 | 45 to 47 |

The remaining lines, values ahead:

| melting point [°C] | Structure (SMILES) |
| --- | --- |
| 106 to 108 | N#Cc1ccc(N2CCCC2)cn1 |
| 86 to 87 | COC(=O)c1scc(C)c1N |
| 144 | O=C1CC(C(=O)O)CC(=O)C1=C(O)C1CC1 (centres undefined) |
| 133 | COc1cc(C=O)c([N+](=O)[O-])cc1OC |
| 36 | CCOC(=O)C1CC(=O)C(=C(O)C2CC2)C(=O)C1 (centres undefined) |
| 110 | O=C(CCc1ccc(O)cc1)c1c(O)cc(O)cc1OC1OC(CO)C(O)C(O)C1O (centres undefined) |
| 126 | CC1C2CCC3C4CC=C5CC(N(C)C)CCC5(C)C4CCC32CN1C (centres undefined) |
| 195 | CCCCC(=O)OCC(=O)C1C(C)CC2C3CC(F)C4=CC(=O)C=CC4(C)C3(F)C(O)CC21C (centres undefined) |
| 43.5 | C#CC(C)N(C(=O)CCl)c1ccccc1 (centres undefined) |
| 219 | CC(C=CC=CC(C)=CC=CC(C)=CC=C1C(C)=CC(=O)CC1(C)C)=CC=CC(C)=CC=C1C(C)=CC(=O)CC1(C)C |
| 152 to 154 | COC(=O)c1scc(S(=O)(=O)Cc2ccco2)c1N |
| 2 | CCC(=O)c1cc(C)ccc1O |
| 36.5 | Cc1ccc(O)c(C(C)C)c1 |
| 85 | O=C(O)CS(=O)(=O)O |
| 154 | COc1ccc(-c2ccc(S(=O)(=O)N3CCCC3C(=O)O)cc2)cc1 (centres undefined) |
| 102 | COc1c(OC)c(OC(C)=O)c2cc(Br)ccc2c1OC(C)=O |
| 92 | CCOC(=O)c1c(-c2ccccc2)csc1N |
| 257 to 260 | O=C(O)c1cc2cc(Br)ccc2o1 |
| 208 | CNCC(=O)O |
| < 25 | O=S(=O)(O)C(F)(F)F |
| 149 | CCOC(=O)c1c(SC)nn(C(N)=S)c1N |

| melting point [°C] | Structure (SMILES) |
| --- | --- |
| 60.5 | CC1CCC2C(C)C(=O)OCC12 (centres undefined) |
| 192 | CCOC(=O)c1cc2c(=O)oc3ccccc3c2nc1N |
| -85 | CCCCC(O)C(C)C (centres undefined) |
| 36.5 | CC(=O)CC(=O)O |
| 134 | CN(C)CCCNc1c2ccccc2nc2cccc([N+](=O)[O-])c12 |
| 48.5 | CCCCCCCCCCCCCCCCCCCCC1CCCCC1 |
| 141 | CCOC(=O)C=Cc1ccc(N=[N+]([O-])c2ccc(C=CC(=O)OCC)cc2)cc1 |
| 74 | CCOC(=O)c1c[nH]cc1C |
| 270 | O=C(c1cc(O)c(O)c(O)c1)c1ccc(O)c(O)c1O |
| -37 | C=C(C)C(=O)NCO |
| 49 to 50 | CN(C)S(C)(=O)=O |
| 159 | CCC(=O)Nc1nc(C)c(Cl)s1 |
| 140 | CC(=O)NNC(C)=O |
| 147 | O=C(O)c1c(Br)cc(Br)c(O)c1Br |
| 95 | CNC(=O)COC1CCN(C(=O)OC(C)(C)C)CC1 |
| 35 | CC(C)C=CC(=O)O |
| -109 | CC1(C)CC1 |
| 125 to 126 | CC(=O)OC[C@H]1O[C@@H](Oc2ccc(C)cc2)[C@H](OC(C)=O)[C@@H](OC(C)=O)[C@@H]1OC(C)=O |
| 87 | O=C(O)CC(O)(C(F)(F)F)C(F)(F)F |
| 92 | CC(C)=C1C2C=CC1c1ccccc12 |
| 36 | CCOc1ccc(C(=O)OC)cc1 |

| melting point [°C] | Structure (SMILES) |
| --- | --- |
| 79 to 81 | O=C(CCl)Nc1ccc(F)cc1F |
| 204 | Cc1cccc(C)c1OCC(C)N (centres undefined) |
| 166 to 172 | COC(=O)C1=C(C)NC(C)=C([N+](=O)[O-])C1c1ccccc1C(F)(F)F (centres undefined) |
| 157 | O=C(O)c1ccccc1O |
| 260 | C=CC=C(C=C1C(=O)NN=C1c1c(O)c2ccccc2n(C)c1=O)C(Cl)=CC |
| 177 to 178 | CC1CCC2(C)C3=C(C(=O)C4(CC4C)C(O)C3=O)C(O)C(O)C2C1C (centres undefined) |
| 139 | Cc1c(C)c(C)c2c(c1C)CC2 |
| 201 | Cc1cc(C)c(O)c(C(=O)CC2CC(=O)NC(=O)C2)c1 |
| 56 to 58 | Cc1nn(C(=O)OC(C)(C)C)c(C)c1I |
| 216 to 218 | NNC(=O)C(N)=O |
| 310 | CC(=O)c1c(O)nc2cc3nc(O)c(C(C)=O)c(C)c3cc2c1C |
| 61 | CCOC(C/N=C/c1cccc(/C=N/CC(OCC)OCC)c1)OCC |
| 193 to 203 | Nc1ccc(SCC(=O)O)cc1 |
| 91 | CCOC(=O)c1cc2ccccc2oc1=S |
| 221 | C=C1C(=O)C23C4CC5C(C)(C)CCC(OC(C)=O)C5(C)C2C(OC(C)=O)CC1(OC(C)=O)C3OC(C)(C)O4 (centres undefined) |
| 265 to 267 | CC(CCC(=O)O)C1CCC2C(C(=O)O)C(C3(C)CCCCC3C(=O)O)CCC12C (centres undefined) |
| 30.5 | C=CCc1ccc(OC(C)=O)c(OC)c1 |
| 232 | O=c1cc(CN2CCOCC2)c2cc(O)c(O)cc2o1 |
| 220 to 223 | O=C1CCC(c2ccc(NC(=O)CCl)cc2)=NN1 |
| 117 | CC12CCC(C(=O)/C(=N\Nc3ccccc3)C1=O)C2(C)C (centres undefined) |
| 200 | COC(=O)C=Cc1ccc([N+](=O)[O-])c(C=CC(=O)OC)c1 |
